Patent US20240239786A1, “COMPOSITIONS AND METHODS FOR THE TREATMENT AND PREVENTION OF CANCER” (Yale University, priority 2021, published 2024)

Assays:
[1] = system: PEO4ip xenografts; test: Survival of mice bearing peritoneal PEO4ip xenografts; type: in vivo, SCID-Beige mice; settings: for effect on survival time of mice: olaparib 50 mg/kg, DB4 10 mg/kg, i.p. daily for 4 weeks
Procedure: (§1) SCID-Beige mice implanted ip with PEO4ip cells were treated daily (qd) with DB4 (10 mg/kg), olaparib (50 mg/kg), and the DB4-olaparib combination for 4 weeks. Kaplan Meier analysis was performed to determine the survival time of mice following treatments. Statistical significance was determined by the Mantel-Cox test comparing the control with each treatment group (N=4-5). […] DB4 given every two days (q2d) in the DB4-olaparib combination for 4 or 6 weeks (n=4-5). […] NOD CRISPR Prkdc Il2r Gamma (NCG) mice implanted sc with SKOV3 cells were treated as described in FIG. 10C for 4 weeks during which the tumor size was measured. Statistical significance was determined by the Wilcoxon matched-pairs signed test comparing the control with each treatment group and comparing between treatment groups. Data are means±SE (N=4-5). *, p<0.05; **, p<0.01.
First, the efficacy of the combination of DB4 and olaparib to treat PEO4ip tumor xenografts, as determined by the median survival time, was evaluated in a peritoneal mouse model (Lin Z P et al., 2018, PLOS One, 13:e0207399). Mice were implanted intraperitoneally (i.p.) with PEO4ip cells and then treated i.p. with olaparib, DB4, or both drugs in combination daily for 4 weeks. The survival endpoint (a 50% increase in abdominal circumference) for vehicle-treated control mice ranged from 55-65 days (8-9 weeks).
Next, these experiments were repeated with modified treatment schedules of DB4 given every two day (q2d) for 4-week and 6-week treatment periods.
Five to six weeks old female SCID-Beige mice were purchased from Envigo (Indianapolis, IN). PEO4ip cells (Lin Z P et al., 2018, PLOS One, 13:e0207399) suspended in 100 μL serum-free medium were implanted i.p. (1×10^7 cells per mouse). Six to eight weeks old female NCG (NOD-Prkdcem26Cd52Il2rgem26Cd22/NjuCrl) mice were purchased from Charles River (Wilmington, MA). SKOV3 cells suspended in 100 μL serum-free medium were mixed with 50 μL Matrigel (BD Biosciences) and implanted s.c. in the right dorsal medial area (1×10^7 cells per mouse). […] The abdominal circumference of PEO4ip-bearing mice reached a 50% increase about 50-70 days.
Mice were randomly assigned to treatment groups (n=4-5) and drug treatment was initiated 3-7 days after tumor implantation. The control group of mice received i.p. treatment with vehicle (2% DMSO) and treatment groups of mice received i.p. treatment for a period of 4 or 6 weeks as follows: Olaparib (50 mg/kg) once daily for 5 consecutive days per week; DB4 (10 mg/kg) once daily for 5 consecutive days (M, T, W, R, F) per week or once every 2 days (M, W, F) per week; The combined treatment with olaparib and DB4 at the dose and schedule described above.
The progression of PEO4ip tumor xenografts in mice was evaluated by measuring the size of the circumference at the lower one-third of the abdominal area with the mouse head positioned upward. A 50% increase in the abdominal circumference was defined as the endpoint of survival as described previously (Lin Z P et al., 2018, PLOS One, 13:e0207399). […] Kaplan-Meier survival curve, median survival time, and statistical analysis was performed using the Prism software (GraphPad). Comparisons were made by the Mantel-Cox test comparing the control with each treatment group. The growth of SKOV3 tumor xenografts was evaluated by the size of s.c. tumor using a digital caliper. Tumor volumes were calculated using the formula: length×width2/2. Statistical difference in the tumor size was determined by the Wilcoxon matched-pairs signed test comparing the control with each treatment group and comparing between treatment groups. Body weights of mice were measured on every treatment day before administration and on the same schedule as tumor measurements during the treatment period.

[2] = system: SKOV3 xenografts; test: Subcutaneous growth of SKOV3 xenografts; type: in vivo, NCG mice; settings: i.p., 4 weeks; olaparib 50 mg/kg qd, DB4 10 mg/kg q2d
Procedure: as §1, with “Data are means±SE (N=4-5). *, p<0.05; **, p<0.01.” left out
The efficacy of the combination of DB4 and olaparib to treat SKOV3 tumor xenografts, as determined by the tumor size, was ascertained in a subcutaneous (s.c.) mouse model (Ratner E S et al., 2016, Br J Cancer, 114:777-786; Lin Z P et al., 2018, PLOS One, 13:e0207399). […]
The progression of PEO4ip tumor xenografts in mice was evaluated by measuring the size of the circumference at the lower one-third of the abdominal area with the mouse head positioned upward. […] The growth of SKOV3 tumor xenografts was evaluated by the size of s.c. tumor using a digital caliper. […]

[3] = Table 2: olaparib 50 mg/kg qd, DB4 10 mg/kg qd, i.p., treated daily
[4] = Table 3: single agents, olaparib 50 mg/kg qd, DB4 10 mg/kg q2d

| SMILES | Median Survival Time [1, 3] [days] | Median Survival Time [1, 4] [days] | effect on survival time of mice [1] | inhibition of subcutaneous growth of SKOV3 xenografts (tumor size) [2] |
| --- | --- | --- | --- | --- |
| O=C(c1cc(Cc2n[nH]c(=O)c3ccccc23)ccc1F)N1CCN(C(=O)C2CC2)CC1 [olaparib, reference compound] | 66 | 55 | no effects on the survival time of mice | moderately but significantly inhibited |
| C=CCn1c(SCc2cccc(Cl)c2)nnc1C1CCN(Cc2nc3ccccc3s2)CC1 [DB4, 2-[(4-{4-allyl-5-[(3-chlorobenzyl)thio]-4H-1,2,4-triazol-3-yl}-1-piperidinyl)methyl]-1,3-benzothiazole] | 67 | 56 | no effects on the survival time of mice | moderately but significantly inhibited |
